# Laboratory results from patent publication US9403833B2, “Carboxamide derivatives” (Novartis AG, priority 2014, dated 2016).
# Target: Smurf-1 (Homo sapiens (Human), UniProt Q9HCE7)
# Assay: HECT E3 ligase autoubiquitinylation TR-FRET assay (Smurf-1)
# Format: biochemical
# Details: 8-point dose-response, 3 nM to 10 uM, 45 min incubation
# Source text: To determine the HECT E3 ligase selectivity of the compounds, a panel of biochemical HECT E3 ligase autoubiquitinylation assays was employed (Smurf-1, Smurf-2, WWP1, WWP2, ITCH, Nedd4, Nedd4L and E6AP). The conjugation of ubiquitin to a protein substrate is a multistep process. In an initial ATP-requiring step, a thioester bond is formed between the carboxyl terminus of ubiquitin and an internal cystein residue of the ubiquitin-activating enzyme (E1). Activated ubiquitin is then transferred to a specific cystein residue of an ubiquitin-conjugating enzyme (E2). E2s donate ubiquitin to a HECT E3 ligase (E3) from which it is transferred to the substrate protein. HECT E3 ligases can auto-ubiquitinylate. This event is detected in the TR-FRET (Time-Resolved Fluorescence Resonance Energy Transfer) assay used in this panel. The reaction mix contains E1, E2, tagged-E3, biotin-conjugated ubiquitin, the compound and ATP in a suitable buffer and is incubated for 45 minutes to allow auto-ubiquitinylation of the E3 ligase. To measure the extent of ubiquitinylated E3 ligase by TR-FRET, the donor fluorophore Europium cryptate (Eu3+ cryptate), conjugated to streptavidin which subsequently binds to biotinylated ubiquitin, and the modified allophycocyanin XL665 (HTRF® primary acceptor fluorophore) coupled to a tag-specific antibody (HA, His or GST), which recognizes the respective E3 ligase fusion proteins, are added after the reaction is complete. When these two fluorophores are brought together by a biomolecular interaction (in this case ubiquitinylation of the E3 ligase), a portion of the energy captured by the Cryptate during excitation is released through fluorescence emission at 620 nm, while the remaining energy is transferred to XL665. This energy is then released by XL665 as specific fluorescence at 665 nm. Light at 665 nm is emitted only through FRET with Europium.
# Test and reference compounds are prepared at 180× [final] in 90% DMSO, and diluted 1:3 in 90% DMSO.
# For the biochemical assay panel, 50 nl of the test compounds, reference compounds and buffer/DMSO control are transferred to the respective wells of a 384-well white GREINER “SMALL VOLUME” PS plate. The assay panel is run at room temperature on a Biomek FX liquid handling workstation. To the assay plates containing 50 nl compound or control solutions in 90% DMSO, 4.5 ul of E3 ligase solution were added per well, followed by 4.5 ul of the pre-incubated E1/E2/Ub mix or the pre-diluted ubiquitin (LOW control). Plates are shaken vigorously after each addition. In this assay the compound concentrations range from 3 nM to 10 uM in an 8-point dose-response curve.
# After 45 min of incubation the ubiquitinylation reactions were stopped by adding 4.5 ul 2 mM NEM, immediately followed by 4.5 ul of a detection solution including the XL665-labeled antibody and the streptavidin-coupled europium to give a total volume of 18 ul. After an incubation time of 45 min in the dark, the plates are transferred into the Pherastar fluorescence reader to measure the TR-FRET signal.
# Smurf-1, sequence (Q9HCE7 whole entry): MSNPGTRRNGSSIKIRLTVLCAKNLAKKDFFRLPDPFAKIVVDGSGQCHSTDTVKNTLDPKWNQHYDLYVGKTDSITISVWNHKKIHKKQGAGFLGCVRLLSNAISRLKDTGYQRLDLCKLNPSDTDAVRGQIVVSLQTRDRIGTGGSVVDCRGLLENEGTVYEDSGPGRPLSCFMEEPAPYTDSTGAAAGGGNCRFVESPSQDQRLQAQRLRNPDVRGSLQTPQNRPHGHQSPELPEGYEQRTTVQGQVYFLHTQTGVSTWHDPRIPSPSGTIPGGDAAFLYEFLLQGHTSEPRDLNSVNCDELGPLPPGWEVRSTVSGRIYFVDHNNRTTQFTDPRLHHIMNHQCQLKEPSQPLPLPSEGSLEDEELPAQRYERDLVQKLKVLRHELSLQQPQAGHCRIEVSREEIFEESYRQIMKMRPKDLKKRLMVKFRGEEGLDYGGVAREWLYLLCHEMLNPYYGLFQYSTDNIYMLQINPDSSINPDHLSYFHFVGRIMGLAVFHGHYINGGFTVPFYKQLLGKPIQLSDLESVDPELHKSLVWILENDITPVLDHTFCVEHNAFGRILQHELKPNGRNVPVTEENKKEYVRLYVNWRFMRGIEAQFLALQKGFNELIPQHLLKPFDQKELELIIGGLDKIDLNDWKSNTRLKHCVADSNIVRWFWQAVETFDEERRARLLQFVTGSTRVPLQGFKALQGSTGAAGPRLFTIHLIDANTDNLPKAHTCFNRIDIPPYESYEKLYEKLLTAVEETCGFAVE
row,IC50 [nM],SMILES
1,8200,"Cc1c(C(=O)Nc2c(C)n(C)n(C3CCCCC3)c2=O)nnn1-c1ccc(Cl)cc1 [Example 6, 1-(4-Chlorophenyl)-N-(2-cyclohexyl-1,5-dimethyl-3-oxo-2,3-dihydro-1H-pyrazol-4-yl)-5-methyl-1H-1,2,3-triazole-4-carboxamide]"
2,890,"COc1ccc(-n2nnc(C(=O)Nc3c(C)n(C)n(C4CCCCC4)c3=O)c2C)c(C(F)(F)F)c1 [Example 3, N-(2-Cyclohexyl-1,5-dimethyl-3-oxo-2,3-dihydro-1H-pyrazol-4-yl)-1-(4-methoxy-2-(trifluoromethyl)phenyl)-5-methyl-1H-1,2,3-triazole-4-carboxamide]"
3,92,"Cc1c(C(=O)Nc2c(C)n(C)n(C3CCCCC3)c2=O)nnn1-c1ccc(C2CC2)cc1Cl [Example 10, 1-(2-Chloro-4-cyclopropylphenyl)-N-(2-cyclohexyl-1,5-dimethyl-3-oxo-2,3-dihydro-1H-pyrazol-4-yl)-5-methyl-1H-1,2,3-triazole-4-carboxamide]"
4,5800,"Cc1c(C(=O)Nc2c(C)n(C)n(-c3ccccc3F)c2=O)nnn1-c1ccc(Cl)cc1Cl [Example 7, 1-(2,4-Dichlorophenyl)-N-(2-(2-fluorophenyl)-1,5-dimethyl-3-oxo-2,3-dihydro-1H-pyrazol-4-yl)-5-methyl-1H-1,2,3-triazole-4-carboxamide]"
5,98,"[2H]C([2H])([2H])n1c(C)c(NC(=O)c2nnn(-c3ccc(C4CC4)cc3Cl)c2C)c(=O)n1C1CCCCC1 [Example 12, 1-(2-Chloro-4-cyclopropylphenyl)-N-(2-cyclohexyl-1-methyl-d3,5-methyl-3-oxo-2,3-dihydro-1H-pyrazol-4-yl)-5-methyl-1H-1,2,3-triazole-4-carboxamide]"
6,3300,"Cc1c(C(=O)Nc2c(C)n(C)n(-c3ccccc3F)c2=O)nnn1-c1ccc(Cl)cc1C1CC1 [Example 13, 1-(4-Chloro-2-cyclopropylphenyl)-N-(2-(2-fluorophenyl)-1,5-dimethyl-3-oxo-2,3-dihydro-1H-pyrazol-4-yl)-5-methyl-1H-1,2,3-triazole-4-carboxamide]"
7,4400,"Cc1c(C(=O)Nc2c(C)n(C)n(-c3ccccc3F)c2=O)nnn1-c1ccc(OC(F)(F)F)cc1Cl [Example 9, 1-(2-Chloro-4-(trifluoromethoxy)phenyl)-N-(2-(2-fluorophenyl)-1,5-dimethyl-3-oxo-2,3-dihydro-1H-pyrazol-4-yl)-5-methyl-1H-1,2,3-triazole-4-carboxamide]"
8,570,"Cc1c(C(=O)Nc2c(C)n(C)n(C3CCCCC3)c2=O)nnn1-c1ccc(Cl)cc1Cl [Example 2, N-(2-Cyclohexyl-1,5-dimethyl-3-oxo-2,3-dihydro-1H-pyrazol-4-yl)-1-(2,4-dichlorophenyl)-5-methyl-1H-1,2,3-triazole-4-carboxamide]"
9,440,"COc1ccc(-n2nnc(C(=O)Nc3c(C)n(C)n(C4CCCCC4)c3=O)c2C)c(Cl)c1 [Example 1, 1-(2-Chloro-4-methoxyphenyl)-N-(2-cyclohexyl-1,5-dimethyl-3-oxo-2,3-dihydro-1H-pyrazol-4-yl)-5-methyl-1H-1,2,3-triazole-4-carboxamide]"
10,3100,"COc1ccc(-n2nnc(C(=O)Nc3c(C)n(C)n(C4CCCCC4)c3=O)c2C)cc1 [Example 17, N-(2-Cyclohexyl-1,5-dimethyl-3-oxo-2,3-dihydro-1H-pyrazol-4-yl)-1-(4-methoxyphenyl)-5-methyl-1H-1,2,3-triazole-4-carboxamide]"
11,1000,"Cc1c(C(=O)Nc2c(C)n(C)n(-c3ccccc3F)c2=O)nnn1-c1ccc(C2CC2)cc1Cl [Example 11, 1-(2-Chloro-4-cyclopropylphenyl)-N-(2-(2-fluorophenyl)-1,5-dimethyl-3-oxo-2,3-dihydro-1H-pyrazol-4-yl)-5-methyl-1H-1,2,3-triazole-4-carboxamide]"
12,230,"Cc1c(C(=O)Nc2c(C)n(C)n(C3CCCCC3)c2=O)nnn1-c1ccc(Cl)cc1C1CC1 [Example 14, 1-(4-Chloro-2-cyclopropylphenyl)-N-(2-cyclohexyl-1,5-dimethyl-3-oxo-2,3-dihydro-1H-pyrazol-4-yl)-5-methyl-1H-1,2,3-triazole-4-carboxamide]"
13,2800,"Cc1c(C(=O)Nc2c(C)n(C)n(-c3ccccc3F)c2=O)nnn1-c1ccc(Cl)cc1 [Example 8, 1-(4-Chlorophenyl)-N-(2-(2-fluorophenyl)-1,5-dimethyl-3-oxo-2,3-dihydro-1H-pyrazol-4-yl)-5-methyl-1H-1,2,3-triazole-4-carboxamide]"
14,4500,"Cc1c(C(=O)Nc2c(C)n(C)n(C3CCCCC3)c2=O)nnn1-c1ccc(F)cc1C1CC1 [Example 15, N-(2-Cyclohexyl-1,5-dimethyl-3-oxo-2,3-dihydro-1H-pyrazol-4-yl)-1-(2-cyclopropyl-4-fluorophenyl)-5-methyl-1H-1,2,3-triazole-4-carboxamide]"
15,550,"Cc1c(C(=O)Nc2c(C)n(C)n(C3CCCCC3)c2=O)nnn1-c1ccc(OC(F)(F)F)cc1Cl [Example 5, 1-(2-Chloro-4-(trifluoromethoxy)phenyl)-N-(2-cyclohexyl-1,5-dimethyl-3-oxo-2,3-dihydro-1H-pyrazol-4-yl)-5-methyl-1H-1,2,3-triazole-4-carboxamide]"
16,55,"Cc1c(NC(=O)c2nnn3c2CCCc2cc(OC(F)(F)F)ccc2-3)c(=O)n(C2CCCCC2)n1C [Example 16, N-(2-Cyclohexyl-1,5-dimethyl-3-oxo-2,3-dihydro-1H-pyrazol-4-yl)-8-(trifluoromethoxy)-5,6-dihydro-4H-benzo[f][1,2,3]triazolo[1,5-a]azepine-3-carboxamide]"
